SMILES strings stand for the structures.

Two compounds from ChEMBL document CHEMBL1159274, “Spiganthine, the cardioactive principle of Spigelia anthelmia” (J Nat Prod, 1995) can be followed below.

Test [1] is described as follows: (§1) Induction of delay in contraction development in electrically-stimulated guinea pig heart ventricular papillary muscle at contraction frequency of 1 Hz. It is filed as functional, tissue-based. Conditions: Cavia porcellus, Muscle tissue.
The species entered for the next test is Cavia porcellus. The description is as §1. It is filed as functional, tissue-based. The conditions noted are these: Muscle tissue.

The term EC50 denotes the concentration at which the effect is half-maximal. A lower EC50 goes with an effect from little substance. Take `CC(C)[C@@]1(O)[C@@H](OC(=O)c2cc[nH]c2)[C@@]2(O)[C@@]3(CO)C[C@]4(O)O[C@@]5([C@H](O)[C@@H](C)CC[C@]35O)[C@@]2(O)[C@]14C` [SPIGANTHINE]: the EC50 in test [1] was 60 nM. Besides, in the test filed under Cavia porcellus, the Activity entry was “Dose-dependent effect”.
Turning to `CC(C)[C@@]1(O)[C@@H](OC(=O)c2cc[nH]c2)[C@@]2(O)[C@]3(C)C[C@@]4(O)O[C@@]5([C@H](O)[C@@H](C)CC[C@]35O)[C@@]2(O)[C@@]41C` [RYANODINE], in test [1] (read-out: MEC), the minimal effective concentration came to 0.0165 µM.
